Drawing on PubChem BioAssay (NCI), this text covers GI50 and TGI for seven compounds.

Assay in all cases: NCI anticancer screen, dose series, 48 h
Assay [1] deals with NCI/ADR-RES ovarian.
Assay [2] concerns RXF 393 renal.
In assay [3] the test system is T-47D breast.
Assay [4] deals with SF-268 CNS.
Assay [5] concerns SK-MEL-5 melanoma.
Assay [6] deals with OVCAR-3 ovarian.
For assay [7], the system named is SK-MEL-28 melanoma.
For assay [8], the system named is NCI-H226 lung.

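Test compounds were applied to cells in 96-well plates for 48 hours at 5 doses. GI50 marks 50% less growth. TGI: concentration producing complete growth inhibition.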

As to `COc1ccccc1C#Cc1ccccc1C#CCCCCCC#Cc1ccccc1C#Cc1ccccc1OC`, the GI50 was 78.6 µM in assay [1]; 26.6 µM in assay [2]; 6.75 µM in assay [3]; 96.5 µM in assay [4]; > 100 µM in assay [5]; 93.5 µM in assay [6]. The GI50 in assay [7] was 68.6 µM; in assay [8] it was > 100 µM. Besides, the TGI in assay [1], in assay [2], in assay [3], in assay [4], in assay [5] and in assay [6] was > 100 µM throughout. In addition, the TGI in assay [7] and in assay [8] was > 100 µM in each case.

As for `C=C(c1ccc(C(=O)N(C)c2ccccc2N)cc1)C(C)N1C(=O)[C@H]2CCCN2C(=O)c2ccccc21` (some centres not stated), the GI50 in assay [1] was 20.2 µM; in assay [2], > 100 µM; in assay [3] it was 16.5 µM; in assay [4], 25 µM; in assay [5], 31.2 µM; in assay [6], 82 µM. The figures for the GI50 in assay [7] and in assay [8] were 31.2 µM and 63.4 µM, respectively. Moreover, the TGI is > 100 µM in assay [1]; > 100 µM in assay [2]; 90.5 µM in assay [3]; > 100 µM in assay [4]; > 100 µM in assay [5]; > 100 µM in assay [6]. The TGI in assay [7] and in assay [8] was > 100 µM in each case.

For the compound `O=C(O)c1ccc(N/C=C2\C(=O)c3ccccc3OC2O)cc1O` (configuration not stated), the GI50 in assay [1] is 22.3 µg/mL; in assay [2], 12.6 µg/mL; in assay [3] it was 6.18 µg/mL; in assay [4], 21.8 µg/mL; in assay [5], 17.6 µg/mL; in assay [6] it was 8.41 µg/mL. The GI50 in assay [7] is 25.1 µg/mL; in assay [8] it was 46.5 µg/mL. Further, the TGI came to 78.6 µg/mL in assay [1]; 34.5 µg/mL in assay [2]; 50.3 µg/mL in assay [3]; 134 µg/mL in assay [4]; 37.6 µg/mL in assay [5]; 41.9 µg/mL in assay [6]. In addition, the results for the TGI in assay [7] and in assay [8] were 69.2 µg/mL and > 150 µg/mL, respectively.

As to `COc1ccc(C(=O)c2cc3c(OC)c(OC)c(OC)cc3[nH]2)cc1`, the GI50 is 3.2 µM in assay [1]; 10.2 µM in assay [2]; 4.53 µM in assay [3]; 68.1 µM in assay [4]; 2.2 µM in assay [5]; 9.07 µM in assay [6]. Further, the GI50 in assay [7] is 8.79 µM; in assay [8], > 100 µM. For the same compound, the TGI is 40.9 µM in assay [1]; 95.7 µM in assay [2]; > 100 µM in assay [3]; > 100 µM in assay [4]; 5.62 µM in assay [5]; > 100 µM in assay [6]. Moreover, the TGI in assay [7] and in assay [8] was > 100 µM in each case.

In the case of `O=C(Cc1cccc(OC(F)(F)F)c1)Nc1ccc(CCCCc2nnc(NC(=O)Cc3ccccn3)s2)nn1`, the GI50 in assay [1] was > 100 µM; in assay [2] it was 4.34 µM; in assay [3], 3.46 µM; in assay [4], 13.6 µM; in assay [5], 16.1 µM; in assay [6], 17 µM. For the same compound, the GI50 in assay [7] was 93.1 µM; in assay [8], 15.1 µM. In addition, the TGI in assay [1] is > 100 µM; in assay [2], 22.7 µM; in assay [3], 26.5 µM; in assay [4] it was 39.1 µM; in assay [5], > 100 µM; in assay [6], > 100 µM. For the same compound, the values for the TGI in assay [7] and in assay [8] were > 100 µM and 54.1 µM, respectively.

On to `COc1ccc2c(c1)C(c1ccccc1Cl)=Nc1c(n[nH]c1C)N2`, for which the GI50 in assay [1] was > 25 µM; in assay [2], 3.7 µM; in assay [3], > 17.6 µM; in assay [4], 12.5 µM; in assay [5], > 25 µM; in assay [6], > 25 µM. For the same compound, the GI50 in assay [7] is > 25 µM; in assay [8], 3.28 µM. The TGI in assay [1], in assay [2], in assay [3], in assay [4], in assay [5] and in assay [6] was > 25 µM each time. In addition, the TGI in assay [7] and in assay [8] was > 25 µM throughout.

Consider `COc1ccc2c(c1)C(=O)/C(=C/c1ncc([N+](=O)[O-])n1C)O2`, for which the GI50 in assay [1] is 0.391 µM; in assay [2], 1.01 µM; in assay [3], 4.2 µM; in assay [4], 0.421 µM; in assay [5], 0.207 µM; in assay [6], 1.3 µM. Also, the GI50 in assay [7] is 0.317 µM; in assay [8] it was 2.09 µM. Moreover, the TGI in assay [1] is 6.47 µM; in assay [2], 3.03 µM; in assay [3] it was > 100 µM; in assay [4], 2.1 µM; in assay [5] it was 0.552 µM; in assay [6] it was 5.11 µM. Further, the results for the TGI in assay [7] and in assay [8] were 1.91 µM and 5.3 µM, respectively.
